Read-outs that look alike come from different tables or passages of the source.
Molecular target: human ALK5 (Homo sapiens (Human), UniProt P36897)
Assay: ADP-GLO Kinases assay, inhibitory activity on ALK5
Type: biochemical
[1] = purified recombinant human ALK5 2.6 nM, TGFβ1 peptide substrate, 25° C, 150 min incubation, ADP-Glo detection, read-out: ALK5 IC50

Chain of human ALK5 (P36897 80-503 limits assumed): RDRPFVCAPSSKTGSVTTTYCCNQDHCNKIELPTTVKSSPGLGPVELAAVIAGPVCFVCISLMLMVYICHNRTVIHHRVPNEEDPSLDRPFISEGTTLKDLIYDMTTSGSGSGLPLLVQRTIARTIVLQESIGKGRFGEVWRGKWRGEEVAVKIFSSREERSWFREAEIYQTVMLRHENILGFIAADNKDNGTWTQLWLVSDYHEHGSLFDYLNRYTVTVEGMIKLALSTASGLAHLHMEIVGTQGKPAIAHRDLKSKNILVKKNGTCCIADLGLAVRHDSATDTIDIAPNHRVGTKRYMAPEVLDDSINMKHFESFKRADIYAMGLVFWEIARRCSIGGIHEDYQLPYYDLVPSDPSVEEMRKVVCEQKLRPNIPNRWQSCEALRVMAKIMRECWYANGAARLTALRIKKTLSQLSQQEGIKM

CNCCN1CCN(CCC(=O)Nc2cc(Nc3cc(-c4cc(Cl)ccc4F)nnc3C)ccn2)CC1 [Example 104, N-(4-{[6-(5-Chloro-2-Fluorophenyl)-3-Methylpyridazin-4-Yl]Amino}Pyridin-2-Yl)-3-{4-[2-(Methylamino)Ethyl]Piperazin-1-Yl}Propanamide]
IC50 [1]: < 1 nM

COC(=O)N(C)CCN1CCN(CCC(=O)Nc2cc(Nc3cc(-c4cc(Cl)ccc4F)nnc3C)ccn2)CC1 [Example 105, methyl N-[2-(4-{2-[(4-{[6-(5-chloro-2-fluorophenyl)-3-methylpyridazin-4-yl]amino}pyridin-2-yl)carbamoyl]ethyl}piperazin-1-yl)ethyl]-N-methylcarbamate]
IC50 [1]: < 1 nM

CNCCN1CCN(CC(=O)Nc2cc(Nc3cc(-c4cc(Cl)ccc4F)nnc3C)ccn2)CC1 [Example 106, N-(4-{[6-(5-Chloro-2-Fluorophenyl)-3-Methylpyridazin-4-Yl]Amino}Pyridin-2-Yl)-2-{4-[2-(Methylamino)Ethyl]Piperazin-1-Yl}Acetamide]
IC50 [1]: < 1 nM

COC(=O)N(C)CCN1CCN(CC(=O)Nc2cc(Nc3cc(-c4cc(Cl)ccc4F)nnc3C)ccn2)CC1 [Example 107, Methyl N-[2-(4-{[(4-{[6-(5-Chloro-2-Fluorophenyl)-3-Methylpyridazin-4-Yl]Amino}Pyridin-2-Yl)Carbamoyl]Methyl}Piperazin-1-Yl)Ethyl]-N-Methylcarbamate]
IC50 [1]: < 1 nM

Cc1nnc(-c2cc(Cl)ccc2F)cc1Nc1ccnc(NC(=O)CN2CCN(CCN)CC2)c1 [Example 108, 2-[4-(2-Aminoethyl)Piperazin-1-Yl]-N-(4-{[6-(5-Chloro-2-Fluorophenyl)-3-Methylpyridazin-4-Yl]Amino}Pyridin-2-Yl)Acetamide]
IC50 [1]: < 1 nM

COC(=O)NCCN1CCN(CC(=O)Nc2cc(Nc3cc(-c4cc(Cl)ccc4F)nnc3C)ccn2)CC1 [Example 109, methyl N-[2-(4-{[(4-{[6-(5-chloro-2-fluorophenyl)-3-methylpyridazin-4-yl]amino}pyridin-2-yl)carbamoyl]methyl}piperazin-1-yl)ethyl]carbamate]
IC50 [1]: < 1 nM

Cc1nnc(-c2cc(Cl)ccc2F)cc1Nc1ccnc(NC(=O)CCN2C[C@@H]3C[C@H]2CN3C)c1 [Example 111, N-(4-{[6-(5-Chloro-2-Fluorophenyl)-3-Methylpyridazin-4-Yl]Amino}Pyridin-2-Yl)-3-[(1S,4S)-5-Methyl-2,5-Diazabicyclo[2.2.1]Heptan-2-Yl]Propanamide]
IC50 [1]: < 1 nM

O=C(Oc1ccc2c(Nc3cnnc(-c4cc(Cl)ccc4F)c3)ccnc2c1)N1CCC2(CCNCC2)C1 [Example 112, 4-{[6-(5-Chloro-2-Fluorophenyl)Pyridazin-4-Yl]Amino}Quinolin-7-Yl 2,8-Diazaspiro[4.5]Decane-2-Carboxylate]
IC50 [1]: < 1 nM

COC(=O)C1CN(CCC(=O)Nc2cc(Nc3cc(-c4cc(Cl)ccc4F)nnc3C)ccn2)CCN1C(C)C (stereo not drawn) [Example 113, Methyl 4-{2-[(4-{[6-(5-Chloro-2-Fluorophenyl)-3-Methylpyridazin-4-Yl]Amino}Pyridin-2-Yl)Carbamoyl]Ethyl}-1-(Propan-2-Yl)Piperazine-2-Carboxylate]
IC50 [1]: < 1 nM

CN1CC2(CCN(C(=O)Oc3ccc4c(Nc5cnnc(-c6cc(Cl)ccc6F)c5)ccnc4c3)CC2)C1 [Example 114, 4-{[6-(5-Chloro-2-Fluorophenyl)Pyridazin-4-Yl]Amino}Quinolin-7-Yl 2-Methyl-2,7-Diazaspiro[3.5]Nonane-7-Carboxylate]
IC50 [1]: < 1 nM

CN1CCC2(CC1)CN(C(=O)Oc1ccc3c(Nc4cnnc(-c5cc(Cl)ccc5F)c4)ccnc3c1)C2 [Example 115, 4-{[6-(5-Chloro-2-Fluorophenyl)Pyridazin-4-Yl]Amino}Quinolin-7-Yl 7-Methyl-2,7-Diazaspiro[3.5]Nonane-2-Carboxylate]
IC50 [1]: < 1 nM

Cc1nnc(-c2cc(Cl)ccc2F)cc1Nc1ccnc(NC(=O)CCN2CCNC(CC(=O)O)C2)c1 (stereo not drawn) [Example 116, 2-(4-{2-[(4-{[6-(5-chloro-2-fluorophenyl)-3-methylpyridazin-4-yl]amino}pyridin-2-yl)carbamoyl]ethyl}piperazin-2-yl)acetic acid]
IC50 [1]: < 1 nM

Cc1nnc(-c2cc(Cl)ccc2F)cc1Nc1ccnc(NC(=O)CN2CCOCC2)c1 [Example 117, N-(4-{[6-(5-Chloro-2-Fluorophenyl)-3-Methylpyridazin-4-Yl]Amino}Pyridin-2-Yl)-2-(Morpholin-4-Yl)Acetamide]
IC50 [1]: < 1 nM

CN1CCC2(CC1)CCN(C(=O)Oc1ccc3c(Nc4cnnc(-c5cc(Cl)ccc5F)c4)ccnc3c1)C2 [Example 118, 4-{[6-(5-Chloro-2-Fluorophenyl)Pyridazin-4-Yl]Amino}Quinolin-7-Yl 8-Methyl-2,8-Diazaspiro[4.5]Decane-2-Carboxylate]
IC50 [1]: < 1 nM

CN1CC2(CCN(C(=O)Oc3ccc4c(Nc5cnnc(-c6cc(Cl)ccc6F)c5)ccnc4c3)C2)C1 [Example 119, 4-{[6-(5-Chloro-2-Fluorophenyl)Pyridazin-4-Yl]Amino}Quinolin-7-Yl 2-Methyl-2,6-Diazaspiro[3.4]Octane-6-Carboxylate]
IC50: 1 to 5 nM

Cc1nnc(-c2cc(Cl)ccc2F)cc1Nc1ccnc(NC(=O)CCN2CCSCC2)c1 [Example 120, N-(4-{[6-(5-Chloro-2-Fluorophenyl)-3-Methylpyridazin-4-Yl]Amino}Pyridin-2-Yl)-3-(Thiomorpholin-4-Yl)Propanamide]
IC50 [1]: < 1 nM

Cc1nnc(-c2cc(Cl)ccc2F)cc1Nc1ccnc(NC(=O)CCN2CC3CC2CN3C)c1 (stereo not drawn) [Example 121, N-(4-{[6-(5-Chloro-2-Fluorophenyl)-3-Methylpyridazin-4-Yl]Amino}Pyridin-2-Yl)-3-{5-Methyl-2,5-Diazabicyclo[2.2.1]Heptan-2-Yl}Propanamide]
IC50 [1]: < 1 nM

CCOC(=O)C1CN(CCC(=O)Nc2cc(Nc3cc(-c4cc(Cl)ccc4F)nnc3C)ccn2)CCN1C (stereo not drawn) [Example 122, Ethyl 4-{2-[(4-{[6-(5-Chloro-2-Fluorophenyl)-3-Methylpyridazin-4-Yl]Amino}Pyridin-2-Yl)Carbamoyl]Ethyl}-1-Methylpiperazine-2-Carboxylate]
IC50 [1]: < 1 nM

Cc1nnc(-c2cc(Cl)ccc2F)cc1Nc1ccnc(NC(=O)C[N+]2([O-])CCOCC2)c1 [Example 123, 4-{[(4-{[6-(5-Chloro-2-Fluorophenyl)-3-Methylpyridazin-4-Yl]Amino}Pyridin-2-Yl)Carbamoyl]Methyl}Morpholin-4-Ium-4-Olate]
IC50 [1]: < 1 nM

Cc1nnc(-c2cc(Cl)ccc2F)cc1Nc1ccnc(NC(=O)CCN2CCN(CC(F)(F)F)CC2)c1 [Example 124, N-(4-{[6-(5-Chloro-2-Fluorophenyl)-3-Methylpyridazin-4-Yl]Amino}Pyridin-2-Yl)-3-[4-(2,2,2-Trifluoroethyl)Piperazin-1-Yl]Propanamide]
IC50 [1]: < 1 nM

Cc1nnc(-c2cc(Cl)ccc2F)cc1Nc1ccnc(NC(=O)CCN2CCN(C)C(C(=O)OC(C)C)C2)c1 (stereo not drawn) [Example 126, Propan-2-Yl 4-{2-[(4-{[6-(5-Chloro-2-Fluorophenyl)-3-Methylpyridazin-4-Yl]Amino}Pyridin-2-Yl)Carbamoyl]Ethyl}-1-Methylpiperazine-2-Carboxylate]
IC50 [1]: < 1 nM

Cc1nnc(-c2cc(Cl)ccc2F)cc1Nc1ccnc(NC(=O)CCN2CCN(C)C(C(=O)OC3CC3)C2)c1 (stereo not drawn) [Example 127, Cyclopropyl 4-{2-[(4-{[6-(5-Chloro-2-Fluorophenyl)-3-Methylpyridazin-4-Yl]Amino}Pyridin-2-Yl)Carbamoyl]Ethyl}-1-Methylpiperazine-2-Carboxylate]
IC50 [1]: < 1 nM

Cc1nnc(-c2cc(Cl)ccc2F)cc1Nc1ccnc2cc(OC(=O)N3CC4CC3CN4C)ccc12 (stereo not drawn) [Example 128, 4-{[6-(5-Chloro-2-Fluorophenyl)-3-Methylpyridazin-4-Yl]Amino}Quinolin-7-Yl 5-Methyl-2,5-Diazabicyclo[2.2.1]Heptane-2-Carboxylate]
IC50: < 1 nM

Cc1nnc(-c2cc(Cl)ccc2F)cc1Nc1ccnc(NC(=O)CCN2CCN(C)C(C(=O)OC3COC3)C2)c1 (stereo not drawn) [Example 129, oxetan-3-yl 4-{2-[(4-{[6-(5-chloro-2-fluorophenyl)-3-methylpyridazin-4-yl]amino}pyridin-2-yl)carbamoyl]ethyl}-1-methylpiperazine-2-carboxylate]
IC50 [1]: < 1 nM

Cc1nnc(-c2cc(Cl)ccc2F)cc1Nc1ccnc(NC(=O)CCN2CC[S+]([O-])CC2)c1 [Example 130, N-(4-{[6-(5-Chloro-2-Fluorophenyl)-3-Methylpyridazin-4-Yl]Amino}Pyridin-2-Yl)-3-(1-Oxo-1V-Thiomorpholin-4-Yl)Propanamide]
IC50 [1]: < 1 nM

Cc1nnc(-c2cc(Cl)ccc2F)cc1Nc1ccnc(NC(=O)CN2CCN(CC(F)(F)F)CC2)c1 [Example 131, N-(4-{[6-(5-Chloro-2-Fluorophenyl)-3-Methylpyridazin-4-Yl]Amino}Pyridin-2-Yl)-2-[14-(2,2,2-Trifluoroethyl)Piperazin-1-Yl]Acetamide]
IC50 [1]: < 1 nM

Cc1nnc(-c2cc(Cl)ccc2F)cc1Nc1ccnc(NC(=O)CCN2CCS(=O)(=O)CC2)c1 [Example 132, N-(4-{[6-(5-Chloro-2-Fluorophenyl)-3-Methylpyridazin-4-Yl]Amino}Pyridin-2-Yl)-3-(1,1-Dioxo-11,6-Thiomorpholin-4-Yl)Propanamide]
IC50 [1]: < 1 nM

O=C(Oc1ccc2c(Nc3cnnc(-c4cc(Cl)ccc4F)c3)ccnc2c1)N1CC(N2CCCC2)C1 [Example 133, 4-{[6-(5-Chloro-2-Fluorophenyl)Pyridazin-4-Yl]Amino}Quinolin-7-Yl 3-(Pyrrolidin-1-Yl)Azetidine-1-Carboxylate]
IC50 [1]: < 1 nM

O=C(Oc1ccc2c(Nc3cnnc(-c4cc(Cl)ccc4F)c3)ccnc2c1)N1CCC(N2CCC2)CC1 [Example 134, 4-{[6-(5-Chloro-2-Fluorophenyl)Pyridazin-4-Yl]Amino}Quinolin-7-Yl 4-(Azetidin-1-Yl)Piperidine-1-Carboxylate]
IC50 [1]: < 1 nM

Cc1nnc(-c2cc(Cl)ccc2F)cc1Nc1ccnc(NC(=O)CCN2CCN(C)C3(CC3)C2)c1 [Example 135, N-(4-{[6-(5-Chloro-2-Fluorophenyl)-3-Methylpyridazin-4-Yl]Amino}Pyridin-2-Yl)-3-{4-Methyl-4,7-Diazaspiro[2.5]Octan-7-Yl}Propanamide]
IC50 [1]: < 1 nM

Source: US20240018122A1, “PYRIDAZINYL AMINO DERIVATIVES AS ALK5 INHIBITORS” (CHIESI FARMACEUTICI S.P.A., priority 2020, published 2024)
